# Assays:
# [1] = tested on: rat; test: Hemilesioned rat 6-OHDA model (bar, drag, rotarod tests); format: in vivo; conditions: route sc, p < 0.05 vs vehicle
# Protocol: Compounds were tested for efficacy in reversing akinesia and bradykinesia in two well accepted rodent Parkinson's disease (PD) models; the haloperidol-induced rat catalepsy and 6-OHDA rat hemiparkinson lesion models.
# In the hemilesioned rat 6-OHDA model, the effect of compound on the akinetic response to lesioning of the contralateral forepaw in the bar test and stepping activity as measured by the drag test were determined. […] This assay examines efficacy for reversing PD motor symptoms (i.e. akinesia/bradykinesia and gait abilities). The behavioral readouts will include immobility time in the bar test (akinesia), number of steps in the drag test (akinesia/bradykinesia) and time spent on rod in the rotarod test (overall gait ability, gross motor behavior). Compounds were administered subcutaneously and efficacy was evaluated between 30 and 90 min post dose.
# [2] = tested on: mouse; test: Tactile allodynia produced by nitroglycerin (migraine model, mouse); format: in vivo; conditions: route sc, nitroglycerin 10 mg/kg ip, p < 0.05 vs vehicle, read-out: Active Migraine Doses
# Protocol: Compounds were tested for efficacy in rodent models of nitroglycerine induced migraine. In this model both rats and mice can be induced to have a behavioral response consistent with the progression of a migraine attack by the intraperitoneal injection of nitroglycerin. In this test mice or rats (n=8/group) are given an intraperitoneal injection of nitroglycerin at 10 mg/kg. After 90 minutes the animals are subcutaneously dosed with test compound. A measurement of mechanical allodynia will be obtained using the up/down method with seven von Frey monofilaments. There is a specific series used for rat and mouse. Each monofilament is delivered to the hind paw for approximately 1-2 seconds. If there is a response, the next lower force will be delivered. This procedure will be performed until no response was made at the highest force or until four stimuli are administered following the initial response. The 50% paw withdrawal threshold for the hind paw will be calculated using the following formula: [Xth]log=[vFr]log+ky where [vFr] is the force of the last von Frey used, k is the average interval (in log units) between the von Frey monofilaments, and y is a value that depends upon the pattern of withdrawal responses. Testing for tactile sensitivity will be performed and a withdrawal value will be assigned as the tactile sensitivity (expressed in grams of force required to elicit a response) for the injected paw for each animal. Data is presented as the mean grams required to produce a hind paw withdrawal from the von Frey stimulus. […] Compounds found to be effective in this model of migraine at the doses indicated, although other doses may also be active. Other compounds described herein were not necessarily tested, but are expected to be able have some level of efficacy.
# [3] = tested on: mouse; test: Tactile allodynia produced by intraplantar Freund's Complete Adjuvant, von Frey (mouse); format: in vivo; conditions: route po, p < 0.05 vs vehicle
# Protocol: (§1) Animals were acclimated to the vivarium for at least 48 hr prior to behavioral testing. Inflammation was induced for both rodent species with the administration of an intraplantar (subcutaneous injection into the plantar surface of the hind paw, i.pl.) injection of 0.10 ml Freund's Complete Adjuvant (FCA).
# For mouse studies, the experiments were conducted 48 hours after FCA administration. Tactile allodynia was measured using a series of von Frey monofilaments. These filaments are bendable, plastic and intended to poke, not penetrate, the skin. Animals were placed in a Plexiglas chamber (approximately 10 cm×20 cm×25 cm) and allowed to habituate for 5-10 minutes. The chamber was positioned on top of a mesh screen so that von Frey monofilaments can be presented to the plantar surface of the hind paw that is inflamed. The measurement of tactile sensitivity for the injected hind paw is obtained using the up/down method (LaBuda and Little, 2005, J Neurosci. Methods, 144, 175) with […]. Each trial will start with a von Frey force of 0.6 grams delivered to the hind paw for approximately 1-2 seconds. If there was no withdrawal response, the next higher force was be delivered. If there was a response, the next lower force was delivered. This procedure was performed until no response was made at the highest force (2 grams) or until four stimuli are administered following the initial response. The 50% paw withdrawal threshold for the hind paw was be calculated using the following formula: [Xth]log=[vFi]log+ky where [vFr] is the force of the last von Frey used, k is the average interval (in log units) between the von Frey monofilaments, and y is a value that depends upon the pattern of withdrawal responses (Dixon, Annual Review Pharmacol Toxicol, 1980, 20, 441).
# [4] = tested on: rat; test: Mechanical allodynia after Freund's Complete Adjuvant, Randall-Selitto (rat); format: in vivo; conditions: route sc, p < 0.05 vs vehicle
# Protocol: as §1
# For rat studies, the experiments were conducted 24 hours after CFA administration. Rats are tested for mechanical allodynia in a Randall-Selitto apparatus. The inflamed paw is put on a pedestal and a pointed force of increasing intensity (0 to 250 grams) is applied to the paw. When the animal struggles to withdraw from the force the test is stopped and the force to induce that struggle is recorded. Data may be presented as mean grams of force to withdrawal or a percentage of the maximum possible effect.
# [5] = tested on: adult male C57 mice; test: Tail suspension test (TST); format: in vivo, mouse; conditions: Mus musculus; route sc, po; p < 0.05 compared to vehicle-treated mice; read-out: Active TST Dose
# Protocol: The experiments were performed using adult male C57 mice (6-10 weeks of age, 20-30 g, Hilltop Lab, PA). The mice were housed in standard rodent cages with stainless steel mesh wire bar lids in groups of 4 with controlled temperature and light cycle (6:00 a.m.-6:00 p.m.). Animals were given free access to food (Harlan Teklad Global 18% protein (Madison, Wis.)) and water during a minimum 2-day habituation period to the laboratory. Animals that were used in the study were handled, housed, and sacrificed (using compressed CO2) in accord with the current NIH guidelines regarding the use and care of laboratory animals, and all applicable local, state, and federal regulations and guidelines. Animals are identified by cage number, and by markings applied to the proximal tip of the tail using a permanent marker. Group sizes (n=8, and therefore 30-50 animals per study) provide reliable estimates of treatment effects, and this species and strain of mouse has been recognized as appropriate for pharmacology studies.
# To measure efficacy of the compounds the compounds were tested using a tail suspension test. The tail suspension test is a behavioral test used to evaluate the efficacy of antidepressant drugs in rodents. In the TST, mice (n=8/group) were suspended by the tail with tape approximately 30-50 cm above the lab bench. Mice are positioned such that the base of their tail is perpendicular to the lab bench. Each mouse is given 1 trial that last 6 minutes. The total duration of immobility is calculated as the percentage of time that the mouse is immobile. The duration of immobility is the main parameter measured. This is calculated from the cumulated time during which the animals is absent of initiated movements including passive swaying. When antidepressant drugs are administered, immobility is decreased by a variety of classes of antidepressant drugs. One or more of the compounds show antidepressant activity.
# [6] = tested on: rat; test: Tactile allodynia produced by nitroglycerin (migraine model, rat); format: in vivo; conditions: route sc, nitroglycerin 10 mg/kg ip, p < 0.05 vs vehicle
compound,measurement,setting,value
"COc1ccc([C@@H]2CCN(CCc3ccccc3)[C@H](C)[C@H]2COc2ccc3c(c2)C(=O)NC3)cc1 [Compound B0707, (−)-6-{[(trans, trans)-4-(4-methoxyphenyl)-2-methyl-1-(2-phenylethy)piperidin-3-yl]methoxy}-2,3-dihydro-1H-isoindol-1-one]",Active Dose (hemilesioned rat 6-OHDA model),[1],≤30 mg/kg
same,minimal effective dose,[2],≤ 10 mg/kg
same,Active CFA Dose,[3],≤30 mg/kg
same,Active CFA Dose,[4],≤10 mg/kg
same,minimal effective dose,[5],≤ 30 mg/kg
same,Active Migraine Doses,[6],≤10 mg/kg

# Source: patent US11465980B2, “6-membered aza-heterocyclic containing delta-opioid receptor modulating compounds, methods of using and making the same” (Trevena, Inc., priority 2015, dated 2022)
